In BindingDB's records for doi:10.1111/cbdd.12458 (Pontificia Universidad Catolica De Chile, 2015) one finds IC50 data, which are given here for eight compounds.

Each structure is given as a SMILES string. pIC50: −log10 of the molar value.

Assay [1] addresses T1, Amine oxidase [flavin-containing] A (Rattus norvegicus, UniProt P21396).
T1 sequence (P21396 whole entry): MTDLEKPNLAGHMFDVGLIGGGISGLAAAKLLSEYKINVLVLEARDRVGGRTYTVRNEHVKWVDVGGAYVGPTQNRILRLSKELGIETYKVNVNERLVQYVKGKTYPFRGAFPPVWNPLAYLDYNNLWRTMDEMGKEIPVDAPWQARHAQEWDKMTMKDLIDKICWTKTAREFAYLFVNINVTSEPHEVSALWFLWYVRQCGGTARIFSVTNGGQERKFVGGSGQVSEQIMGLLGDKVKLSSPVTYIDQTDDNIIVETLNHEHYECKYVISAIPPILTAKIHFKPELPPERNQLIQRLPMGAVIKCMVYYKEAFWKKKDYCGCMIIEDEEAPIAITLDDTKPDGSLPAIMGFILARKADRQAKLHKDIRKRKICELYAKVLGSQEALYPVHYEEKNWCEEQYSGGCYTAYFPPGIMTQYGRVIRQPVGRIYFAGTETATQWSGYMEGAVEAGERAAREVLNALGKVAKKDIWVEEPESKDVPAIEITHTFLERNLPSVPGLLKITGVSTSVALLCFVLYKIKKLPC
As to the kind of experiment: Monoamine Oxidase Inhibition Assay. As to the method: (§1) Briefly, a crude rat brain mitochondrial suspension (male Sprague Dawley rats weighing 180 220 g, killed by decapitation) was used as protein source. Serotonin(5-HT, 100 µM) and 4-dimethylaminophenethylamine (DMAPEA, 5 µM) were used as selective substrates for MAO-A and MAO-B, respectively. The reaction mixtures were analyzed with a Merck-Hitachi HPLC (Tokyo, Japan), employing a C18 reverse phase column (Lichrospher 250 9 4.6 mm, 5 µm) and an amperometric detector (Merck Recipe L3500A). Tetrahydrofuran and acetonitrile (Merck) were used as eluents.

The target of assay [2] is T2, Amine oxidase [flavin-containing] B (Rattus norvegicus, UniProt P19643).
T2 sequence (P19643 whole entry): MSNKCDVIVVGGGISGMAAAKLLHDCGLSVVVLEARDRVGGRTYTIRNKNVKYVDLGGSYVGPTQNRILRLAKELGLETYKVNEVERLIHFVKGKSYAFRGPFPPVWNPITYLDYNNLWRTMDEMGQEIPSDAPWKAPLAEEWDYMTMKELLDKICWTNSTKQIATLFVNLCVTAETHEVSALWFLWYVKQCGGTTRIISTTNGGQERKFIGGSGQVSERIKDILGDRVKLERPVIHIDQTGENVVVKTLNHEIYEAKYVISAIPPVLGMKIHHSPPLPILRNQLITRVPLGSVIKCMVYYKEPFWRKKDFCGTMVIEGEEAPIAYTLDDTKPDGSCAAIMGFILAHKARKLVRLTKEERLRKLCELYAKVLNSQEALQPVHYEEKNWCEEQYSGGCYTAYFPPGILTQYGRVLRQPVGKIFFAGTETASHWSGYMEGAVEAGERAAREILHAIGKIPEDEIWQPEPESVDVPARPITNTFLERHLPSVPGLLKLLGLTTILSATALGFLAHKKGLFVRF
Briefly: Monoamine Oxidase Inhibition Assay. As for the experimental part: as §1

Regarding `COc1ccc(OC)c(/C=C/C(=O)c2c(O)cccc2OC)c1` [(E)-3-(2,5-Dimethoxyphenyl)-1-(2-hydroxy-6-methoxyphenyl)prop-2-en-1-one (3a)], the negative logarithm of the IC50 (pIC50) in assay [1] was less than 4.00; in assay [2], 4.96.
For `COc1ccc2c(c1)C(=O)/C(=C/c1cc(OC)c(Br)cc1OC)O2` [(Z)-2-(4-Bromo-2,5-dimethoxybenzylidene)-5-methoxybenzofuran-3(2H)-one (4h)], in that order: less than 4.00 and 4.87.
As for `COc1ccc(O)c(C(=O)/C=C/c2cccc(OC)c2OC)c1` [(E)-3-(2,3-Dimethoxyphenyl)-1-(2-hydroxy-5-methoxyphenyl)prop-2-en-1-one (3g)], the pIC50 in assay [1] was less than 4.00; in assay [2] it was 5.17.
For `COc1cc(/C=C2\Oc3cccc(OC)c3C2=O)c(OC)cc1Br` [(Z)-2-(4-Bromo-2,5-dimethoxybenzylidene)-4-methoxybenzofuran-3(2H)-one (4d)], in that order: less than 4.00 and 4.58.
For `COc1ccc2c(c1)C(=O)/C(=C/c1cccc(OC)c1OC)O2` [(Z)-2-(2,3-Dimethoxybenzylidene)-5-methoxybenzofuran-3(2H)-one (4g)], in that order: less than 4.00 and 4.94.
For `COc1cc(/C=C/C(=O)c2c(O)cccc2OC)c(OC)cc1Br` [(E)-3-(4-Bromo-2,5-dimethoxyphenyl)-1-(2-hydroxy-6-methoxyphenyl)prop-2-en-1-one (3d)], in that order: less than 4.00 and 5.21.
`COc1ccc(OC)c(/C=C2\Oc3cccc(OC)c3C2=O)c1` [(Z)-2-(2,5-Dimethoxybenzylidene)-4-methoxybenzofuran-3(2H)-one (4a)]: the values for the pIC50 in assay [1] and in assay [2] were less than 4.00 and 4.75, respectively.
In the case of `COc1ccc(O)c(C(=O)/C=C/c2cc(OC)c(Br)cc2OC)c1` [(E)-3-(4-Bromo-2,5-dimethoxyphenyl)-1-(2-hydroxy-5-methoxyphenyl)prop-2-en-1-one (3h)], the pIC50 in assay [1] is less than 4.00; in assay [2], 5.55.
